Measurements as given in patent US11306084B2, “Integrin antagonists” (Saint Louis University, priority 2016, dated 2022).
Structures can show the parent of a compound that is named as a salt.

Key:
[1] = target: T1, Recombinant human integrin ανβ3 (Homo sapiens, UniProt P05106+P06756); assay: Solid Phase Receptor Assay (SPRA) for ανβ3 function; format: binding; conditions: plate-bound human vitronectin; read-out: αvβ3 SPRA IC50
T1 construct: purchased R&D Systems 3050-AV

[2] = target: T2, Recombinant human integrin ανβ5 (Homo sapiens, UniProt P06756+P18084); assay: Solid Phase Receptor Assay (SPRA) for ανβ5 function; format: binding; conditions: plate-bound human vitronectin; read-out: αvβ5 SPRA IC50
T2 construct: purchased R&D Systems 2528-AV
T2 sequence (P06756 31-992 limits assumed): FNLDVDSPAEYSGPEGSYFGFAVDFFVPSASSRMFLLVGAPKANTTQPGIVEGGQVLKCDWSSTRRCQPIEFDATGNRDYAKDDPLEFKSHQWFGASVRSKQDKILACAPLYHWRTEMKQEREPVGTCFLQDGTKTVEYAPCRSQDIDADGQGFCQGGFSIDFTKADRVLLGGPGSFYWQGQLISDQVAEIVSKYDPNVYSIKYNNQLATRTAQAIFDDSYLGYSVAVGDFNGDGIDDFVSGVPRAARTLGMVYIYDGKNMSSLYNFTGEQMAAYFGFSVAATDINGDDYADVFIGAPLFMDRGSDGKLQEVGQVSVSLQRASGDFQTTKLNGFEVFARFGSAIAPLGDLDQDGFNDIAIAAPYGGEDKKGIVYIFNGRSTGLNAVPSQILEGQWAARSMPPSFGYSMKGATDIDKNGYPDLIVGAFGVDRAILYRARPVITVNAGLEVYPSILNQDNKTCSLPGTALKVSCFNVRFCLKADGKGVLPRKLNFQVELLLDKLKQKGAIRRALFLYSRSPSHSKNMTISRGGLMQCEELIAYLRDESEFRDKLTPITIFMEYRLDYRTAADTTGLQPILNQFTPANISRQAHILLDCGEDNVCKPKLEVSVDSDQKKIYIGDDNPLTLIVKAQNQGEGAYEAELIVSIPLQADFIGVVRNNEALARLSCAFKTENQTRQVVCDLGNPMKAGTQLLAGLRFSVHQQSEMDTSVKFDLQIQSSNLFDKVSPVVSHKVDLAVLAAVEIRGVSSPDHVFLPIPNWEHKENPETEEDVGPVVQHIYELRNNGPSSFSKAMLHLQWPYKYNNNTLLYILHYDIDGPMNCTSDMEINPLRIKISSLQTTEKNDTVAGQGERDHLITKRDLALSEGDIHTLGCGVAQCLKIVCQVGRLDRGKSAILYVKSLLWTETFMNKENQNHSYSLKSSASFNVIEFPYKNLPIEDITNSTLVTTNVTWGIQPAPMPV
T2 sequence (P18084 24-719 limits assumed): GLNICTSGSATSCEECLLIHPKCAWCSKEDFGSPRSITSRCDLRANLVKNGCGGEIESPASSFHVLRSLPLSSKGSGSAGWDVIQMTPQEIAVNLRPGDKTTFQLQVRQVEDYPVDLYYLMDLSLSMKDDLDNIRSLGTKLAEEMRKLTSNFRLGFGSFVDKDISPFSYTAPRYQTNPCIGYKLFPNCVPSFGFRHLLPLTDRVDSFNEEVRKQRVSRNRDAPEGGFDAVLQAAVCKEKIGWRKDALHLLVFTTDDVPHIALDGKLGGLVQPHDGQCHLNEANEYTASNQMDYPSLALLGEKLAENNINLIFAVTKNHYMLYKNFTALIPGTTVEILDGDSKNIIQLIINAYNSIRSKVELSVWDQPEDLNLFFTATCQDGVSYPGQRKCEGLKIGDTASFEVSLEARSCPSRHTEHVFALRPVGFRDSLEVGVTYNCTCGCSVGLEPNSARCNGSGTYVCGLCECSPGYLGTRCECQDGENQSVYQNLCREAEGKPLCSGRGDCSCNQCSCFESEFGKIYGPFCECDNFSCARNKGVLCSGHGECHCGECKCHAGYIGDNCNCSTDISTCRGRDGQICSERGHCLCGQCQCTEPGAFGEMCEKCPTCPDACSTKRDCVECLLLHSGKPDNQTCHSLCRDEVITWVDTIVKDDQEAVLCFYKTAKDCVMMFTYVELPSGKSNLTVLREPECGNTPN

T1 sequence (P06756 31-992 limits assumed): as the sequence (P06756 31-992 limits assumed) above
T1 sequence (P05106 27-718 limits assumed): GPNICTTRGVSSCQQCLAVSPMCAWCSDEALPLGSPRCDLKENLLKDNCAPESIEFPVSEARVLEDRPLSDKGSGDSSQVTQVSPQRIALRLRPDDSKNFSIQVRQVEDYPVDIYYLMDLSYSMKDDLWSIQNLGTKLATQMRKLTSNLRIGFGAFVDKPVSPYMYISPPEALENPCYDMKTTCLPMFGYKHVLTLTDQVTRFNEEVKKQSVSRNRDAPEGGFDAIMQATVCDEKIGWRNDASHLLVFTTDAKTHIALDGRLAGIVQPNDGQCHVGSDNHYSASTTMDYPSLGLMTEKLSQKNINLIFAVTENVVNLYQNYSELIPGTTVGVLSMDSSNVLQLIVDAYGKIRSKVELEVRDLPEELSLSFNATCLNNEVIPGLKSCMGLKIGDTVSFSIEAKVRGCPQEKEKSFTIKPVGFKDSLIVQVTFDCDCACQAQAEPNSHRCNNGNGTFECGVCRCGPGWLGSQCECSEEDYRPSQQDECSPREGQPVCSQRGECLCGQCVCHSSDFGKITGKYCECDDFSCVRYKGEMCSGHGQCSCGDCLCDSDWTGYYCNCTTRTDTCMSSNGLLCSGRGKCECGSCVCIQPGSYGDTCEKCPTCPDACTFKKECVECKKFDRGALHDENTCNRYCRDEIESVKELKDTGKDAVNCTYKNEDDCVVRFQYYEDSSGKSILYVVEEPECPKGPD

| Compound | IC50 [1] | IC50 [2] |
| --- | --- | --- |
| Cn1nc(CC(CC(=O)O)c2cc(OC(F)(F)F)cc(C(C)(C)C)c2)cc1OCCc1ccc2c(n1)NCCC2 (centres unmarked) [Example 36, 3-[3-tert-butyl-5-(trifluoromethoxy)phenyl]-4-[1-methyl-5-[2-(5,6,7,8-tetrahydro-1,8-naphthyridin-2-yl)ethoxy]pyrazol-3-yl]butanoic Acid] | 10 nM | 1.1 nM |
| Cn1nc(CC(CC(=O)O)c2cc(C(C)(C)C)cc(C(F)(F)F)c2)cc1OCCc1ccc2c(n1)NCCC2 (centres unmarked) [Example 37, 3-[3-tert-butyl-5-(trifluoromethyl)phenyl]-4-[1-methyl-5-[2-(5,6,7,8-tetrahydro-1,8-naphthyridin-2-yl)ethoxyl]pyrazol-3-yl]butanoic Acid] | 7.3 nM | 6.2 nM |
| Cn1nc(CC(CC(=O)O)c2cc(F)cc(C(C)(C)C)c2)cc1OCCc1ccc2c(n1)NCCC2 (centres unmarked) [Example 38, 3-(3-(tert-butyl)-5-fluorophenyl)-4-(1-methyl-5-(2-(5,6,7,8-tetrahydro-1,8-naphthyridin-2-yl)ethoxy)-1H-pyrazol-3-yl)butanoic Acid] | 7.9 nM | 0.3 nM |
| COc1ccc(C(C)C)cc1C(CC(=O)O)Cc1cc(OCCc2ccc3c(n2)NCCC3)n(C)n1 (centres unmarked) [Example 39, 3-(5-isopropyl-2-methoxyphenyl)-4-(1-methyl-5-(2-(5,6,7,8-tetrahydro-1,8-naphthyridin-2-yl)ethoxy)-1H-pyrazol-3-yl)butanoic Acid Trifluoroacetate] | 290 nM | 96 nM |
| CC(C)c1cc(Br)cc(C(CC(=O)O)Cc2cc(OCCc3ccc4c(n3)NCCC4)n(C)n2)c1 (centres unmarked) [Example 40, 3-(3-bromo-5-isopropyl-phenyl)-4-[1-methyl-5-[2-(5,6,7,8-tetrahydro-1,8-naphthyridin-2-yl)ethoxyl]pyrazol-3-yl]butanoic acid trifluoroacetate] | 7.2 nM | 1.1 nM |
| CC(C)(C)c1cc(Br)cc(C(CC(=O)O)Cc2cc(OCCc3ccc4c(n3)NCCC4)n(CC(F)(F)F)n2)c1 (centres unmarked) [Example 41, 3-(3-bromo-5-tert-butyl-phenyl)-4-[5-[2-(5,6,7,8-tetrahydro-1,8-naphthyridin-2-yl)ethoxy]-1-(2,2,2-trifluoroethyl)pyrazol-3-yl]butanoic Acid Trifluoroacetate] | 9 nM | 2.2 nM |
| Cn1nc(CC(CC(=O)O)c2cc(C(C)(C)C)ccc2O)cc1OCCc1ccc2c(n1)NCCC2 (centres unmarked) [Example 42, 3-(5-tert-butyl-2-hydroxy-phenyl)-4-[1-methyl-5-[2-(5,6,7,8-tetrahydro-1,8-naphthyridin-2-yl)ethoxyl]pyrazol-3-yl]butanoic Acid Sodium Salt] | 18 nM | 6.6 nM |
| Cn1nc(CC(CC(=O)O)c2cc(C(C)(C)C)ccc2Cl)cc1OCCc1ccc2c(n1)NCCC2 (centres unmarked) [Example 43, 3-(5-(tert-butyl)-2-chlorophenyl)-4-(1-methyl-5-(2-(5,6,7,8-tetrahydro-1,8-naphthyridin-2-yl)ethoxy)-1H-pyrazol-3-yl)butanoic Acid Trifluoroacetate] | 94.4 nM | 16.6 nM |
| Cc1ccc(C(C)(C)C)cc1C(CC(=O)O)Cc1cc(OCCc2ccc3c(n2)NCCC3)n(C)n1 (centres unmarked) [Example 44, 3-(5-tert-butyl-2-methyl-phenyl)-4-[1-methyl-5-[2-(5,6,7,8-tetrahydro-1,8-naphthyridin-2-yl)ethoxy]pyrazol-3-yl]butanoic Acid Trifluoroacetate] | 270 nM | 76 nM |
| COc1ccc(C#N)cc1C(CC(=O)O)Cc1cc(OCCc2ccc3c(n2)NCCC3)n(C)n1 (centres unmarked) [Example 46, 3-(5-cyano-2-methoxyphenyl)-4-(1-methyl-5-(2-(5,6,7,8-tetrahydro-1,8-naphthyridin-2-yl)ethoxy)-1H-pyrazol-3-yl)butanoic Acid Trifluoroacetate] | 9.9 nM | 1 nM |
| COc1ccc(C(N)=O)cc1C(CC(=O)O)Cc1cc(OCCc2ccc3c(n2)NCCC3)n(C)n1 (centres unmarked) [Example 47, 3-(5-carbamoyl-2-methoxyphenyl)-4-(1-methyl-5-(2-(5,6,7,8-tetrahydro-1,8-naphthyridin-2-yl)ethoxy)-1H-pyrazol-3-yl)butanoic Acid trifluoroacetate] | 4.9 nM | 0.3 nM |
| COc1ccc(C(=O)O)cc1C(CC(=O)O)Cc1cc(OCCc2ccc3c(n2)NCCC3)n(C)n1 (centres unmarked) [Example 48, 3-(1-carboxy-3-(1-methyl-5-(2-(5,6,7,8-tetrahydro-1,8-naphthyridin-2-yl)ethoxy)-1H-pyrazol-3-yl)propan-2-yl)-4-methoxybenzoic Acid Trifluoroacetate] | 5 nM | 0.7 nM |
| Cn1nc(CC(CC(=O)O)c2cccc(C(C)(C)C)c2)cc1OCCc1ccc2c(n1)NCCC2 (centres unmarked) [Example 49, 3-(3-tert-butylphenyl)-4-[1-methyl-5-[2-(5,6,7,8-tetrahydro-1,8-naphthyridin-2-yl)ethoxy]pyrazol-3-yl]butanoic Acid Trifluoroacetate] | 7 nM | 0.4 nM |
